Columns and labels:
MV-411 cells = experiment: Anti-proliferative activity against MV-411 leukemia cells (CellTiterGlo viability, 72 h); assay type: cell-based; conditions: Homo sapiens, MV4-11, 72 h, MV-411 human acute monocytic leukemia cells, a second value in parentheses is a further determination
Description: Procedure: MV-411 cells were seeded into 384 well plates at 2000 cells/well density in 50 μL total volume, according to plate map and were allowed to naturally sediment by waiting about 30 min on a Clean Bench. Next, plated cells were centrifuged for 1 min at 1000 rpm and the excess cells were transferred into the flasks for further culture. Cells in the assay plates were incubated (at least 4 hrs.) at 37° C., 5% CO2 followed by adding the compounds as the plate map indicated. The tests were performed in duplicates with treatment of compounds at 10 pts 3-fold titration in 384 well plates. Taxol was used as positive control while DMSO as negative control. To rule out edge effect, the wells on the edge were not seeded and therefore one 384 well plate holds 13 compounds. Cells viability was measured 72h after incubation with compounds using CellTiterGlo (promega) viability assay according to manufacturer's instruction to check the ATP production in each well.
Experiments on anti-proliferative activity against leukemia cells were conducted with some of the compounds of the invention.

hERG = hERG (Homo sapiens (Human), UniProt Q12809); experiment: hERG radioligand binding assay; conditions: for inhibition at 1 h, 10000 nM: human, hERG membrane stocks (membrane preparation), probe 3H radio ligand (not named), max dose 10,000 nM, read-out: % Inh at Max dose
Chain of hERG (Q12809 whole entry): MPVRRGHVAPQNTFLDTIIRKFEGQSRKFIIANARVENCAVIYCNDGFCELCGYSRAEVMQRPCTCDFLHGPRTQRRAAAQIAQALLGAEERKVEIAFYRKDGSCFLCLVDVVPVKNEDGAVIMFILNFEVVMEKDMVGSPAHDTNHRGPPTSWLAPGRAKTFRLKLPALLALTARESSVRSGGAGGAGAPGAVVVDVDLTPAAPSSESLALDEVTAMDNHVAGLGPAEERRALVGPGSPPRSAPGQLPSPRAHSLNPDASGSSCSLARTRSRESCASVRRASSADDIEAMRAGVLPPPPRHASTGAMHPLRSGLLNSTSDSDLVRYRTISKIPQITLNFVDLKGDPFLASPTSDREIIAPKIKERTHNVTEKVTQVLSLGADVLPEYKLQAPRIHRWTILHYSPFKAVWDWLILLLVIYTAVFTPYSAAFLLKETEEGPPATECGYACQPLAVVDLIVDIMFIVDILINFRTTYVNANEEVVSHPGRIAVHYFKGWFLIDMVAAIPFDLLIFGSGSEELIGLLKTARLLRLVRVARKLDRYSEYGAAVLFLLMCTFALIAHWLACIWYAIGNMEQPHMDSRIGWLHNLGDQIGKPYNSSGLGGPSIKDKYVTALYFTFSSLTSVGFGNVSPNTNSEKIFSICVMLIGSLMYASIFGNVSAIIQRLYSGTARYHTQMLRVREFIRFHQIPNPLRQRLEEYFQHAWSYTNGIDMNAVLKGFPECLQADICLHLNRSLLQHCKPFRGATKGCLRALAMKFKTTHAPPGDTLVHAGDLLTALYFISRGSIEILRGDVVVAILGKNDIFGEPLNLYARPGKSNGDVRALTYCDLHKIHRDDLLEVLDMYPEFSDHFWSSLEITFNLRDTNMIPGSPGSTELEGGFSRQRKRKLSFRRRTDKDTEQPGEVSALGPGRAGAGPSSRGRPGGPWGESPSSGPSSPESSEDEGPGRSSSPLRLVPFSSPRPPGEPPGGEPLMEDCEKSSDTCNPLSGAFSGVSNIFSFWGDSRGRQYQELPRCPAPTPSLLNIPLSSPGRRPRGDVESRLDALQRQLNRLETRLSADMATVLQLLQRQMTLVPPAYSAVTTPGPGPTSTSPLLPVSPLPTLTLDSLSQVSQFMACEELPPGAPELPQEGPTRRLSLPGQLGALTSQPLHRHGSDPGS
Description: Procedure: Compounds were prepared and diluted with DMSO to make 0.2 mM and 0.02 mM solution. Reference compound was diluted with DMSO to make 8-point 4-fold serial dilution, starting at 0.2 mM. One μl of compounds/high control/low control was transferred to the assay plate according to the plate map. Next, and by following the plate map, 100 μl of membrane stocks was dispensed into the plate followed by adding 100 μl of radio ligand. Plates were then sealed and were incubated at RT for 1 hours. In the meantime, the Unifilter-96 GF/C filter plates were soaked with 50 μL of 0.5% BSA per well for at least 0.5 hour at room temperature. When binding assays were completed, the reaction mixture was filtered through GF/C plates using Perkin Elmer Filtermate Harvester, and then each plate was washed for 4 times with cold wash buffer. Next, the filter plates were dried for 1 hr at 50 degrees and the bottom of the filter plate wells were sealed using Perkin Elmer Unifilter-96 backing seal tape. Next, 50 μl of Perkin Elmer Microscint 20 cocktail was added. The top of the filter plate was sealed with Perkin Elmer TopSeal-A sealing film. Using Perkin Elmer MicroBeta2 Reader count 3H trapped on filter. Finally, the data was analyzed with GraphPad Prism 5. The “Inhibition [% Control]” was calculated using the equation: % Inh=(1-Background subtracted Assay value/Background subtracted HC value)*100.

[1] = Solubility remark in Table 4; assay type: physicochemical; conditions: remark beside the GI50 value
[2] = target: MLL1-WDR5 protein-protein interaction (Homo sapiens (Human), UniProt P61964); experiment: WDR5 TR-FRET assay (MLL1-WDR5 PPI inhibition); assay type: binding; conditions: 5 nM WDR5 protein, 10 nM peptide, read-out: IC50 (nM), MLL1-WDR5 PPI inhibitory activity
Description: WDR5 TR-FRET Assay Procedure: Stock compounds were transferred to the assay plate by Echo Liquid Handler. […] Stock compounds were incubated with WDR5 protein for 30 min at room temperature. Plates were covered, protected from light and incubated for 60 min at room temperature, after adding the peptide and Tb-Ab. EnVision Multimode Plate Reader (PerkinElmer) was used for the TR-FRET assay with excitation wavelength at 340 nm and emission wavelength at 495 and 520 nm. The ratio of the 520/495 wavelengths were used to assess the degree of the FRET signal. IC50 was calculated by fitting the inhibition data using XLfit software to sigmoidal dose-response model.

| solubility (remark) [1] | Compound | GI50 (MV-411 cells) [µM] | IC50 (hERG) [nM] | inhibition at 1 h, 10000 nM (hERG) [%] | IC50 [2] [nM] |
| --- | --- | --- | --- | --- | --- |
|  | CN1CCN(c2ccc(-n3cc(C(=O)NCCCN4CCOCC4)nn3)cc2NC(=O)c2cnc(Cl)cc2C(F)(F)F)CC1 [Compound 3] | 0.298 | > 10000 | 3.31 |  |
|  | CN1CCN(c2cc(F)c(-n3cc(C(=O)NCCCN4CCOCC4)nn3)cc2NC(=O)c2cnc(Cl)cc2C(F)(F)F)CC1 [Compound 7] | 0.4 | > 10000 | 11.8 |  |
|  | C[C@H]1CN(c2ccc(-n3cc(C(=O)NCCCN4CCOCC4)nn3)cc2NC(=O)c2cnc(Cl)cc2C(F)(F)F)CCN1C [Compound 9] | 0.241 | > 10000 | 6.39 |  |
| (poor solubility) | Cc1c(Cl)ncc(C(=O)Nc2cc(-n3cc(C(=O)NCCCN4CCOCC4)nn3)c(F)cc2N2CCN(C)[C@H](C)C2)c1Cl [Compound 59] | > 204 |  |  |  |
|  | CN(CCOc1ccc(NS(C)(=O)=O)cc1)CCc1ccc(NS(C)(=O)=O)cc1 [Dofetilide] |  |  | 99.9 |  |
|  | C[C@@H]1CN(c2cc(F)c(-n3cc(C(=O)NC4CCN(C)CC4)nn3)cc2NC(=O)c2cnc(C(F)(F)F)cc2Cl)C[C@H](C)N1C [Example 58, 4-chloro-N-(4-fluoro-5-(4-((1-methylpiperidin-4-yl)carbamoyl)-1H-1,2,3-triazol-1-yl)-2-((3S,5R)-3,4,5-trimethylpiperazin-1-yl)phenyl)-6-(trifluoromethyl)nicotinamide] |  |  |  | > 10000 |
|  | Cc1c(Cl)ncc(C(=O)Nc2cc(-n3cc(C(=O)NCCCN4CCOCC4)nn3)c(F)cc2N2C[C@@H](C)N(C)[C@@H](C)C2)c1Cl [Example 59, 4,6-dichloro-N-[4-fluoro-5-[4-(3-morpholinopropylcarbamoyl)triazol-1-yl]-2-[(3R,5S)-3,4,5-trimethylpiperazin-1-yl]phenyl]-5-methyl-pyridine-3-carboxamide] |  |  |  | > 10000 |
|  | CN1CCN(c2ccc(-n3cc(C(=O)NCCCN4CCOCC4)nn3)cc2NC(=O)c2ncc(N)cn2)CC1 [HYBI-267, 5-amino-N-(2-(4-methylpiperazin-1-yl)-5-(4-((3-morpholinopropyl)carbamoyl)-1H-1,2,3-triazol-1-yl)phenyl)pyrimidine-2-carboxamide] |  |  |  | > 10000 |
|  | C[C@H]1CN(c2cc(F)c(-n3cc(C(=O)N4CCN(C)CC4)nn3)cc2NC(=O)c2cnc(Cl)cc2C(F)(F)F)C[C@H](C)N1C [HYBI-284] |  |  |  | 1270 |

— patent US20230286948A1 (HUYABIO International, LLC, priority 2022, published 2023)
